Assay results: article PMC6746850, “Identification and Molecular Characterization of Superoxide Dismutases Isolated From A Scuticociliate Parasite: Physiological Role in Oxidative Stress” (Scientific Reports, 2019)

What was measured:
[1] = target: T1, Pd-Fe-SOD (FSD) (Philasterides dicentrarchi, UniProt A0A481XSU7); experiment: SOD activity staining (NBT) in native PAGE; format: biochemical; conditions: 100 μM inhibitor; anion-exchange fraction P2 (methods also describe 30 min treatment of live ciliates before lysis)
T1 construct: native enzyme, 60-65 kDa activity band in anion-exchange fraction P2 on native PAGE; homodimer
T1 sequence (A0A481XSU7 22-249): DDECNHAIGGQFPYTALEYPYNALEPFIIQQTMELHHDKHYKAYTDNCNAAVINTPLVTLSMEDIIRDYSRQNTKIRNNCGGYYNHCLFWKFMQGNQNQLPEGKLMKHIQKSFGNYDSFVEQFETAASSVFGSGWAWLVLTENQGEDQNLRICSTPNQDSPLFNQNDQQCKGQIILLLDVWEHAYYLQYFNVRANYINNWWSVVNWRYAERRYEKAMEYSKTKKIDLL

[2] = target: T2, Pd-Mn-SOD (MSD) (Philasterides dicentrarchi, UniProt A0A410JA19); experiment: SOD activity staining (NBT) in native PAGE; format: biochemical; conditions: 100 μM inhibitor; anion-exchange fraction P2 (methods also describe 30 min treatment of live ciliates before lysis)
T2 construct: native enzyme, about 50 kDa activity band in anion-exchange fraction P2 on native PAGE; homodimer
T2 sequence (A0A410JA19 13-220): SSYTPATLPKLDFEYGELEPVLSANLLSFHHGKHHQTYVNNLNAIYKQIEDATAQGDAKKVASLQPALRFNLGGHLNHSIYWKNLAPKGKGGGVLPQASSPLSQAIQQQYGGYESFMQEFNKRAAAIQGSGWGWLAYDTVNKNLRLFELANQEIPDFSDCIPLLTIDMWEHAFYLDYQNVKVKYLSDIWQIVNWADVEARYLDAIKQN

Compound: Oc1ccc(/C=C/c2cc(O)cc(O)c2)cc1 [trans-resveratrol]
- complete inhibition at 100 μM [1]: completely inhibited the activity of the Pd-Fe-SOD isoenzyme
- partial inhibition at 100 μM [2]: RESV partly inhibited the activity of the Pd-Mn-SOD isoenzyme
